Results as given in US11639350B2, “Heteroaryldihydropyrimidine derivatives and methods of treating hepatitis B infections” (Janssen Pharmaceutica NV, priority 2018, dated 2023).
pEC50: −log10 of the molar value.

Key:
HepG2.2.15 cells = assay: Cytotoxicity determination in HepG2.2.15 cells (CCK-8); format: cell-based; settings: 6 days of compound treatment, CCK-8, highest concentration 100 μM
Outline: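 CC50 is from CCK-8 absorbance (450 nm, 630 nm reference) after 2.5 h with reagent. Before that, compounds were applied for six days, top concentration 100 μM, eight threefold dilutions, one mid-course medium change, to stably HBV-integrated HepG2.2.15 cells plated at 5,000/well in 2% FBS.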

HBV = HBV inhibitory activity: HBV DNA in the culture medium of HepG2.2.15 cells by q-PCR; format: cell-based; settings: HepG2.2.15 cells, 6 days of compound treatment, HBV DNA in culture medium by q-PCR, highest concentration 10 μM; read-out: EC50
Outline: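 Supernatant HBV DNA quantified by q-PCR after a 6-day compound exposure, with one mid-course medium change, of HepG2.2.15 cells (stably integrated HBV; 40,000 per well, 2% FBS). Eight-point 3-fold series topped at 10 μM for antiviral EC50; separate plates of 5,000 cells per well with 100 μM top give CC50.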

CCCS(=O)(=O)N1CCC(C2=C(C(=O)OC)C(c3ccc(F)cc3Cl)N=C(c3nccs3)N2)C1 (single isomer, unassigned) [Compound 256D, Methyl 4-(2-chloro-4-fluorophenyl)-6-(−1-(propylsulfonyl)pyrrolidin-3-yl)-2-(thiazol-2-yl)-1,4-dihydropyrimidine-5-carboxylate]
CC50 (HepG2.2.15 cells): 22900 nM
pEC50 (HBV): 6.02

COC(=O)C1=C(C2CCN(S(C)(=N)=O)CC2)NC(c2nccs2)=NC1c1ccc(F)c(F)c1Cl (stereo not drawn) [Compound 205B, methyl 4-(2-chloro-3,4-difluorophenyl)-6-(1-(S-methylsulfonimidoyl)piperidin-4-yl)-2-(thiazol-2-yl)-1,4-dihydropyrimidine-5-carboxylate]
CC50 (HepG2.2.15 cells): 40500 nM
pEC50 (HBV): 6.72

COC(=O)C1=C(C2CCN(S(=O)(=O)CC3(C)CCC(C(=O)O)CC3)CC2)NC(c2nccs2)=NC1c1ccc(F)cc1Cl (single isomer, unassigned) [Compound 450B, (trans)-4-(((4-(6-(2-Chloro-4-fluorophenyl)-5-(methoxycarbonyl)-2-(thiazol-2-yl)-3,6-dihydropyrimidin-4-yl)piperidin-1-yl)sulfonyl)methyl)-4-methylcyclohexanecarboxylic Acid]
CC50 (HepG2.2.15 cells): 14000 nM
pEC50 (HBV): 8.15

COC(=O)C1=C(C2CCN(S(=O)(=O)CC3(C)CCC(C(=O)O)CC3)CC2)NC(c2nccs2)=NC1c1ccc(F)c(F)c1Cl (single isomer, unassigned) [Compound 452A, (cis)-4-(((4-(6-(2-Chloro-3,4-difluorophenyl)-5-(methoxycarbonyl)-2-(thiazol-2-yl)-3,6-dihydropyrimidin-4-yl)piperidin-1-yl)sulfonyl)methyl)-4-methylcyclohexanecarboxylic Acid]
CC50 (HepG2.2.15 cells): 9700 nM
pEC50 (HBV): 8.22

COC(=O)C1=C(C2CCC(NC(C)=O)C2)NC(c2nccs2)=NC1c1cccc(F)c1Cl (single isomer, unassigned) [Compound 62G, Methyl 6-(3-acetamidocyclopentyl)-4-(2-chloro-3-fluorophenyl)-2-(thiazol-2-yl)-1,4-dihydropyrimidine-5-carboxylate]
CC50 (HepG2.2.15 cells): 37100 nM
pEC50 (HBV): 6.92

COC(=O)C1=C(C2COC(CO)C2)NC(c2nccs2)=NC1c1cccc(F)c1Cl (single isomer, unassigned) [Compound 219H, Methyl 4-(2-chloro-3-fluorophenyl)-6-(5-(hydroxymethyl)-tetrahydrofuran-3-yl)-2-(thiazol-2-yl)-1,4-dihydropyrimidine-5-carboxylate]
CC50 (HepG2.2.15 cells): 1500 nM
pEC50 (HBV): 6.48

COC(=O)C1=C(C2CCC(NC(C)=O)C2)NC(c2nccs2)=NC1c1ccc(F)c(F)c1Cl (single isomer, unassigned) [Compound 300D, Methyl 6-(−3-acetamidocyclopentyl)-4-(2-chloro-3,4-difluorophenyl)-2-(thiazol-2-yl)-1,4-dihydropyrimidine-5-carboxylate]
CC50 (HepG2.2.15 cells): 12600 nM
pEC50 (HBV): 7.85

CCOC(=O)C1=C(C2CCN(S(=O)(=O)C3CC(C)(C(=O)O)C3)CC2)NC(c2nccs2)=NC1c1cccc(F)c1Cl (single isomer, unassigned) [Compound 321A, (trans)-3-((4-(6-(2-Chloro-3-fluorophenyl)-5-(ethoxycarbonyl)-2-(thiazol-2-yl)-3,6-dihydropyrimidin-4-yl)piperidin-1-yl)sulfonyl)-1-methylcyclobutanecarboxylic Acid]
CC50 (HepG2.2.15 cells): 17200 nM
pEC50 (HBV): 7.92

COC(=O)C1=C(C2CCN(S(=O)(=O)[C@H]3C[C@H](C(=O)O)C3)CC2)NC(c2nccs2)=NC1c1ccc(F)c(F)c1Cl (single isomer, unassigned) [Compound 232X, (trans)-3-((4-(6-(2-Chloro-3,4-difluorophenyl)-5-(methoxycarbonyl)-2-(thiazol-2-yl)-3,6-dihydropyrimidin-4-yl)piperidin-1-yl)sulfonyl)cyclobutanecarboxylic Acid]
CC50 (HepG2.2.15 cells): 70000 nM
pEC50 (HBV): 6.98

COC(=O)C1=C(C2CCC(=O)N2)NC(c2nccs2)=NC1c1cccc(F)c1Cl (single isomer, unassigned) [Compound 75A, Methyl 4-(2-chloro-3-fluorophenyl)-6-(5-oxopyrrolidin-2-yl)-2-(thiazol-2-yl)-1,4-dihydropyrimidine-5-carboxylate]
CC50 (HepG2.2.15 cells): 32300 nM
pEC50 (HBV): 6.67

COC(=O)C1=C(C2COC(CO)C2)NC(c2nccs2)=NC1c1cccc(F)c1Cl (single isomer, unassigned) [Compound 219A, Methyl 4-(2-chloro-3-fluorophenyl)-6-(5-(hydroxymethyl)-tetrahydrofuran-3-yl)-2-(thiazol-2-yl)-1,4-dihydropyrimidine-5-carboxylate]
CC50 (HepG2.2.15 cells): 35300 nM
pEC50 (HBV): 6.72

COC(=O)C1=C(C2CCN(S(=O)(=O)C3CC(C)(C(=O)O)C3)CC2)NC(c2nccs2)=NC1c1ccc(F)cc1Cl (stereo not drawn) [Compound 142, (cis)-3-((4-(6-(2-chloro-4-fluorophenyl)-5-(methoxycarbonyl)-2-(thiazol-2-yl)-3,6-dihydropyrimidin-4-yl)piperidin-1-yl)sulfonyl)-1-methylcyclobutane-1-carboxylic Acid]
CC50 (HepG2.2.15 cells): 37600 nM
pEC50 (HBV): 7.05

COC(=O)C1=C(C2CCN(S(C)(=O)=O)C2)NC(c2nccs2)=NC1c1ccc(F)cc1Cl (single isomer, unassigned) [Compound 65C, 4-(2-Chloro-4-fluoro-phenyl)-6-(1-methanesulfonyl-pyrrolidin-3-yl)-2-thiazol-2-yl-1,4-dihydro-pyrimidine-5-carboxylic Acid Methyl Ester]
CC50 (HepG2.2.15 cells): 19500 nM
pEC50 (HBV): 6.42

COC(=O)C1=C(C2CCOC2)NC(c2nccs2)=NC1c1cccc(F)c1Cl (single isomer, unassigned) [Compound 74C, Methyl 4-(2-chloro-3-fluorophenyl)-6-(tetrahydrofuran-3-yl)-2-(thiazol-2-yl)-1,4-dihydropyrimidine-5-carboxylate]
CC50 (HepG2.2.15 cells): 86500 nM
pEC50 (HBV): 6.60

COC(=O)C1=C(C2CCN(S(=O)(=O)C3CC(C)(C(=O)O)C3)CC2)NC(c2nccs2)=NC1c1ccc(F)cc1C (stereo not drawn) [Compound 447C, (trans)-3-((4-(6-(4-Fluoro-2-methylphenyl)-5-(methoxycarbonyl)-2-(thiazol-2-yl)-3,6-dihydropyrimidin-4-yl)piperidin-1-yl)sulfonyl)-1-methylcyclobutanecarboxylic Acid]
CC50 (HepG2.2.15 cells): 48200 nM
pEC50 (HBV): 7.10

COC(=O)C1=C(C2CCN(S(N)(=O)=O)CC2)NC(c2nccs2)=NC1c1ccc(F)c(F)c1Cl (stereo not drawn) [Compound 416B]
CC50 (HepG2.2.15 cells): 13500 nM
pEC50 (HBV): 8.22

COC(=O)C1=C([C@H]2CCC[C@@H](CO)C2)NC(c2nccs2)=NC1c1ccc(F)cc1Cl (single isomer, unassigned) [Compound 173C, Methyl 4-(2-chloro-4-fluorophenyl)-6-((cis)-3-(hydroxymethyl)cyclohexyl)-2-(thiazol-2-yl)-1,4-dihydropyrimidine-5-carboxylate]
CC50 (HepG2.2.15 cells): 9900 nM
pEC50 (HBV): 6.97

COC(=O)C1=C(C2CCN(S(=O)(=O)C3CC(C)(C(=O)OC)C3)CC2)NC(c2nccs2)=NC1c1ccc(F)c(F)c1Cl (single isomer, unassigned) [Compound 323C, trans-methyl 4-(2-chloro-3,4-difluorophenyl)-6-(1-((3-(methoxycarbonyl)-3-methylcyclobutyl)sulfonyl)piperidin-4-yl)-2-(thiazol-2-yl)-1,4-dihydropyrimidine-5-carboxylate]
CC50 (HepG2.2.15 cells): 24100 nM
pEC50 (HBV): 8.00

COC(=O)C1=C(C2CCCC(C(=O)O)CC2)NC(c2nccs2)=NC1c1ccc(F)cc1Cl (single isomer, unassigned) [Compound 95E, 4-(6-(2-Chloro-4-fluorophenyl)-5-(methoxycarbonyl)-2-(thiazol-2-yl)-3,6-dihydropyrimidin-4-yl)cycloheptanecarboxylic Acid]
CC50 (HepG2.2.15 cells): 75000 nM
pEC50 (HBV): 6.85

COC(=O)C1=C(C2CCCOC2)NC(c2nccs2)=NC1c1ccc(F)cc1Cl (single isomer, unassigned) [Compound 48D, Methyl 4-(2-chloro-4-fluorophenyl)-6-(tetrahydro-2H-pyran-3-yl)-2-(thiazol-2-yl)-1,4-dihydropyrimidine-5-carboxylate]
CC50 (HepG2.2.15 cells): > 100000 nM
pEC50 (HBV): 6.68

CCOC(=O)C1=C(C2CCN(S(=O)(=O)C3CC(C)(C(=O)O)C3)CC2)NC(c2nccs2)=NC1c1cccc(F)c1C (single isomer, unassigned) [Compound 429D, (cis)-3-((4-(−5-(Ethoxycarbonyl)-6-(3-fluoro-2-methylphenyl)-2-(thiazol-2-yl)-3,6-dihydropyrimidin-4-yl)piperidin-1-yl)sulfonyl)-1-methylcyclobutanecarboxylic Acid]
CC50 (HepG2.2.15 cells): 16000 nM
pEC50 (HBV): 7.31

COC(=O)C1=C(C2CCOC2)NC(c2nccs2)=NC1c1cccc(F)c1Cl (single isomer, unassigned) [Compound 74D, Methyl 4-(2-chloro-3-fluorophenyl)-6-(tetrahydrofuran-3-yl)-2-(thiazol-2-yl)-1,4-dihydropyrimidine-5-carboxylate]
CC50 (HepG2.2.15 cells): 84500 nM
pEC50 (HBV): 6.52

COC(=O)C1=C(C2CCN(S(=O)(=O)[C@H]3C[C@](C)(C(=O)O)C3)CC2)NC(c2nccs2)=NC1c1cccc(F)c1Cl (stereo partly drawn) [Compound 274A, (trans)-3-((4-(−6-(2-Chloro-3-fluorophenyl)-5-(methoxycarbonyl)-2-(thiazol-2-yl)-3,6-dihydropyrimidin-4-yl)piperidin-1-yl)sulfonyl)-1-methylcyclobutanecarboxylic Acid]
CC50 (HepG2.2.15 cells): 31400 nM
pEC50 (HBV): 7.38

COC(=O)C1=C(C23CC(N(C[C@@H](O)CO)S(C)(=O)=O)(C2)C3)NC(c2nccs2)=NC1c1ccc(F)cc1Cl (single isomer, unassigned) [Compound 376D]
CC50 (HepG2.2.15 cells): 97300 nM
pEC50 (HBV): 7.46
